Results: patent US20240334934A1, “FUNGICIDE MIXTURE” (priority 2021, published 2024)

Key:
Assay type in all cases: cell-based
Monographella nivalis = assay: Efficacy of purified CtmC in-vitro, microtiter plate growth inhibition; conditions: rate 10 ppm; 72 hrs at 24° C.
Description: CtmC was dissolved in DMSO (Dimethylsulfoxid) to a final concentration of 1000 ppm to create a stock solution. A second dilutions of 1:10 was made in water+0.025% Tween 20. From this second dilution 10 μl are dispensed into a 96-well plate. To each well, 90 μl of medium with fungal spores are added and mixed, resulting in final CtmC concentrations of 10 ppm. All wells containing CtmC also contain DMSO (1%) and Tween 20 (0.0025%).
Monographella nivalis (snow mould, foot rot of cereals): Conidia of the fungus from cryogenic storage were directly mixed into nutrient broth (PDB potato dextrose broth). After placing a solution of the test compounds into a microtiter plate (96-well format) the nutrient broth containing the fungal spores was added.

[1] = test system: Fusarium virguliforme isolate 1; assay: Effect of Tween 20 on efficacy of purified CtmC, EC50
Source text: (§1) This is contrary to our results. In order to eliminate the possibility that the fungicidal effect that we observe was down to the presence of Tween 20 we carried out some experiments like those in Example 3 but with various levels of Tween 20, including none.
(§2) The experiment at outlined in Example 3 was repeated to evaluate the EC50 values for CtmC control on Fusarium virguliforme in presence of 4 different rates of Tween20: 0% (absence of Tween 20), 0.0025%, 0.0050% […] and 0.0100%. The plate layout was identical to Example 7, except that the plates were multiplied 4 times to accommodate the different Tween 20 concentrations in the assay plate. All other experimental conditions were kept identical. Fusarium isolates were tested at 25′000 sp/ml.

[2] = test system: Fusarium virguliforme isolate 2; assay: as above
Source text: as §1, §2

[3] = test system: Cercospora kikuchii K6080; assay: Efficacy of purified CtmC alone in-vitro, 96 well plate, OD 620 nm; conditions: CtmC 10 ppm
Description: (§3) CtmC was dissolved in DMSO (Dimethylsulfoxid) to a final concentration of 1000 ppm to create a stock solution. A second dilutions of 1:10 was made in water+0.025% Tween 20. From this second dilution 10 μl are dispensed into a 96 well plate. To each well, 90 μl of medium (PDB—potato dextrose broth, plus 0.3% agar) with fungal spores are added and mixed, resulting in final CtmC concentrations of 10 ppm. All wells containing CtmC also contain DMSO (1%) and Tween 20 (0.0025%). In the following table 4 some of the species were tested using several distinct isolates (internal strain number indicated) to understand variability among different isolates of the same species sampled in different locations, producing different mycotoxins (genus Fusarium), or expressing various tolerances to fungicides of the SDHI (Succinate Dehydrogenase Inhibitor), SBI (Sterol Biosynthesis Inhibitors) and/or QoI (quinone outside inhibitors) classes (example: Zymoseptoria tritici). Different isolates had variable inoculum density and number of biological repicas, as indicated.

Cercospora sojina K5703 = assay: as above; conditions: CtmC 10 ppm
Description: as §3

[4] = test system: Cochliobolus sativus K5817; assay: as above; conditions: CtmC 10 ppm
Description: as §3

[5] = test system: Colletotrichum lindemuthianum K5893; assay: as above; conditions: CtmC 10 ppm
Description: as §3

[6] = test system: Corynespora cassiicola K5577; assay: as above; conditions: CtmC 10 ppm
Description: as §3

Fusarium culmorum K5488 = assay: as above; conditions: CtmC 10 ppm
Description: as §3

Fusarium culmorum K6937 = assay: as above; conditions: CtmC 10 ppm
Description: as §3

Fusarium culmorum K8196 = assay: as above; conditions: CtmC 10 ppm
Description: as §3

Fusarium poae K8039 = assay: as above; conditions: CtmC 10 ppm
Description: as §3

[7] = test system: Fusarium tricinctum K7452; assay: as above; conditions: CtmC 10 ppm
Description: as §3

[8] = test system: Fusarium tricinctum K7454; assay: as above; conditions: CtmC 10 ppm
Description: as §3

[9] = test system: Gibberella avenacea K6939; assay: as above; conditions: CtmC 10 ppm
Description: as §3

[10] = test system: Gibberella fujikuroi K5299; assay: as above; conditions: CtmC 10 ppm
Description: as §3

Microdochium majus K7482 = assay: as above; conditions: CtmC 10 ppm
Description: as §3

[11] = test system: Ramularia collo-cygni K6218; assay: as above; conditions: CtmC 10 ppm
Description: as §3

[12] = test system: Rhynchosporium secalis K5917; assay: as above; conditions: CtmC 10 ppm
Description: as §3

Septoria glycines K5204 = assay: as above; conditions: CtmC 10 ppm
Description: as §3

[13] = test system: Ustilago segetum var. tritici K5349; assay: as above; conditions: CtmC 10 ppm
Description: as §3

[14] = test system: Zymoseptoria tritici K6105; assay: as above; conditions: CtmC 10 ppm
Description: as §3

[15] = test system: Zymoseptoria tritici K6318; assay: as above; conditions: CtmC 10 ppm
Description: as §3

[16] = test system: Zymoseptoria tritici K6420; assay: as above; conditions: CtmC 10 ppm
Description: as §3

[17] = test system: Zymoseptoria tritici K7953; assay: as above; conditions: CtmC 10 ppm
Description: as §3

[18] = test system: Fusarium langsethiae K5670; conditions: CtmC 10 ppm

Compound: C=C1NC(=O)CNC(=O)[C@H](CCCCN)NC(=O)[C@@]2(C)NC(=O)/C(=C/C)NC(=O)[C@H]3CSC(=N3)[C@@H](CC(N)=O)CC(=O)c3ccc(nc3[C@@H](C)NC(=O)[C@@H]3CCCN3C1=O)-c1nc(cs1)C1=N[C@H](CS1)C(=O)NC(=C)c1nc(cs1)-c1nc(cs1)C1=N[C@@H](CS1)C(=O)N[C@@H](C(=O)O)CS2 [CtmC, cyclothiazomycin C]
- control of fungal growth (%) (Monographella nivalis): 100%
- EC50 (ppm) ([1]; Tween 20 0%): 1.422 ppm
- EC50 (ppm) ([1]; Tween 20 0.0025%): 1.053 ppm
- EC50 (ppm) ([1]; Tween 20 0.0050%): 0.8103 ppm
- EC50 (ppm) ([1]; Tween 20 0.0100%): 1.436 ppm
- EC50 (ppm) ([2]; Tween 20 0%): 1.098 ppm
- EC50 (ppm) ([2]; Tween 20 0.0025%): 0.889 ppm
- EC50 (ppm) ([2]; Tween 20 0.0050%): 0.7844 ppm
- EC50 (ppm) ([2]; Tween 20 0.0100%): 1.035 ppm
- efficacy (%) [3]: 100%
- optical density at 620 nm ([3]; blank 0.044, untreated 0.215): 0.043
- efficacy (%) (Cercospora sojina K5703): 54%
- optical density at 620 nm (Cercospora sojina K5703; blank 0.047, untreated 0.357): 0.188
- efficacy (%) [4]: 92%
- optical density at 620 nm ([4]; blank 0.044, untreated 0.701): 0.095
- efficacy (%) [5]: 45%
- optical density at 620 nm ([5]; blank 0.046, untreated 0.373): 0.225
- efficacy (%) [6]: 86%
- optical density at 620 nm ([6]; blank 0.047, untreated 0.427): 0.100
- efficacy (%) (Fusarium culmorum K5488): 52%
- optical density at 620 nm (Fusarium culmorum K5488; blank 0.046, untreated 0.374): 0.203
- efficacy (%) (Fusarium culmorum K6937): 44%
- optical density at 620 nm (Fusarium culmorum K6937; blank 0.052, untreated 0.528): 0.319
- efficacy (%) (Fusarium culmorum K8196): 48%
- optical density at 620 nm (Fusarium culmorum K8196; blank 0.055, untreated 0.701): 0.388
- efficacy (%) (Fusarium poae K8039): 62%
- optical density at 620 nm (Fusarium poae K8039; blank 0.050, untreated 0.619): 0.267
- efficacy (%) [7]: 68%
- optical density at 620 nm ([7]; blank 0.052, untreated 0.498): 0.197
- efficacy (%) [8]: 65%
- optical density at 620 nm ([8]; blank 0.050, untreated 0.463): 0.195
- efficacy (%) [9]: 82%
- optical density at 620 nm ([9]; blank 0.055, untreated 0.675): 0.165
- efficacy (%) [10]: 47%
- optical density at 620 nm ([10]; blank 0.053, untreated 0.941): 0.528
- efficacy (%) (Microdochium majus K7482): 96%
- optical density at 620 nm (Microdochium majus K7482; blank 0.050, untreated 0.228): 0.057
- efficacy (%) [11]: 60%
- optical density at 620 nm ([11]; blank 0.043, untreated 0.231): 0.119
- efficacy (%) [12]: 95%
- optical density at 620 nm ([12]; blank 0.046, untreated 0.378): 0.062
- efficacy (%) (Septoria glycines K5204): 81%
- optical density at 620 nm (Septoria glycines K5204; blank 0.044, untreated 0.414): 0.115
- efficacy (%) [13]: 97%
- optical density at 620 nm ([13]; blank 0.044, untreated 0.304): 0.051
- efficacy (%) [14]: 99%
- optical density at 620 nm ([14]; blank 0.044, untreated 0.354): 0.046
- efficacy (%) [15]: 98%
- optical density at 620 nm ([15]; blank 0.054, untreated 0.253): 0.059
- efficacy (%) [16]: 93%
- optical density at 620 nm ([16]; blank 0.048, untreated 0.257): 0.064
- efficacy (%) [17]: 77%
- optical density at 620 nm ([17]; blank 0.055, untreated 0.235): 0.096
- efficacy (%) [18]: 94%
- optical density at 620 nm ([18]; blank 0.053, untreated 0.346): 0.072
